Data as given in patent US20260374766A1, “METHODS FOR TREATING CANCER” (Antares Therapeutics, Inc., priority 2022, published 2026).
Where two headings read alike, the source gives them in different places.

Assays:
[1] = biological target: T1, p53 Y220C mutant protein (amino acid residues 94-293) (Homo sapiens, UniProt P04637, Y220C); assay: Surface Plasmon Resonance (SPR) assay, Kd_kinetic; assay type: binding; conditions: SPR, p53 Y220C, read-out: SPR P53 Y220C KD kinetic
T1 construct: p53 Y220C mutant protein (amino acid residues 94-293)
Method: Surface Plasmon Resonance (SPR) Assay Protocol
SPR experiments were performed on a Biacore 8K instrument. […] The running buffer contained 50 mM Tris, pH 7.5, 100 mM NaCl, 1 mM DTT, 0.01% Brij35, 0.05% Tween-20 and 1% DMSO. The assay temperature was maintained at 16 or 20 °C and data were fit into the 1:1 binding model using the Biacore Insight Evaluation software.

[2] = biological target: p53 Y220C (Homo sapiens, UniProt P04637, Y220C); assay: Luciferase Reporter Assay (Luc), p53 response element, NClH1299 cells with inducible p53 Y220C; assay type: cell-based; conditions: 6 hour; for AC50: read-out: Luc P53 Y220C AC50
Method: Luciferase Reporter Assay Protocol
The cells were then used for p53 reporter assay. 5,000 cells were seeded in each well of 384 plate and cultured in 0.5 ug/mL doxycycline (D3072; Sigma) containing medium for 24 hours before compound treatment. After 6 hour of compound treatment, equal volume of One-Glo reagent (E6110; Promega) was added to each well and the plate was incubated for 5 minutes with shaking at room temperature. The luciferase activity was immediately measured with PheraStar microplate reader.

[3] = tested on: NUGC3 p53 Y220C; assay: Cell Proliferation Assay (CellTiter-Glo, CTG), NUGC3 p53 Y220C; assay type: cell-based; conditions: Homo sapiens, NUGC-3, 120 h, 5 days
Method: (§1) Inducible p53 Y220C and R273H constructs (Tet-One inducible expression system; Takara) were stably expressed in NClH1299 cells by lentiviral transduction. NUGC3, A549, BxPC3, T3M4, HuH7, HCC2935, MFE296, NClH1299, NClH1299-inducible p53 Y220C, and NClH1299-inducible p53 R273H cell lines were used for cell proliferation assay. 250-500 cells were seeded in each well of 384 plate and then compounds were dispensed into each well using Echo or Tecan. After 5 days of incubation, equal volume of CellTiter-Glo reagent (G7570; Promega) was added into each well and the plate was incubated at room temperature for 10 minutes with shaking. The luminescent signal was measured by PheraStar microplate reader and IC50 was calculated.

[4] = tested on: H1299 p53 Y220C; assay: Cell Proliferation Assay (CellTiter-Glo, CTG), H1299 p53 Y220C (NClH1299-inducible p53 Y220C); assay type: cell-based; conditions: Homo sapiens, NCI-H1299, 120 h, 5 days
Method: as §1

[5] = tested on: H1299 p53 R273H; assay: Cell Proliferation Assay (CellTiter-Glo, CTG), H1299 p53 R273H (NClH1299-inducible p53 R273H); assay type: cell-based; conditions: Homo sapiens, NCI-H1299, 120 h, 5 days
Method: as §1

[6] = AC50, luciferase reporter, NClH1299 inducible p53 Y220C
[7] = Emax, luciferase reporter, NClH1299 inducible p53 Y220C
[8] = NClH1299-inducible p53 Y220C cells, CellTiter-Glo
[9] = NClH1299-inducible p53 R273H cells, CellTiter-Glo
[10] = luciferase reporter, NClH1299 inducible p53 Y220C, 10 uM tool compound as positive control
[11] = luciferase reporter, NClH1299 inducible p53 Y220C

T1 sequence (P04637 94-293, stated change not applied): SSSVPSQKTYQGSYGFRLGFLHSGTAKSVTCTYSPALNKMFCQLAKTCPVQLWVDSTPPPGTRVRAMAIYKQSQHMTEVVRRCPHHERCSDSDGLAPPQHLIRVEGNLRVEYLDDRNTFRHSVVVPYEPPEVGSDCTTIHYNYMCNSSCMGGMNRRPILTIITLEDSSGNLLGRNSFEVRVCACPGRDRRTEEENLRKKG

| SMILES | Kd [1] | AC50 [2, 6] | Emax [2, 7] | IC50 ([3]; NUGC3 cells, CellTiter-Glo) | IC50 [4, 8] | IC50 [5, 9] | Kd ([1]; kinetic KD) | Emax [2, 10] | AC50 [2, 11] | IC50 ([3]; CellTiter-Glo, NUGC3 p53 Y220C) | IC50 ([4]; CellTiter-Glo, H1299 p53 Y220C) | IC50 ([5]; CellTiter-Glo, H1299 p53 R273H) | AC50 ([2]; AC50, NClH1299 cells with inducible p53 Y220C) | Emax ([2]; Emax, NClH1299 cells with inducible p53 Y220C, 10 uM tool compound as positive control) | IC50 ([3]; NUGC3 cells) | IC50 ([4]; NClH1299-inducible p53 Y220C cells) | IC50 ([5]; NClH1299-inducible p53 R273H cells) |
| --- | --- | --- | --- | --- | --- | --- | --- | --- | --- | --- | --- | --- | --- | --- | --- | --- | --- |
| CNC(=O)c1ccc(OC)c(NCC#Cc2cn3c(N[C@@H]4CCN(C)C[C@@H]4F)cccc3c2SC(F)(F)F)c1 [Example 393] | < 10 nM | < 750 nM | > 90% | < 750 nM | < 750 nM | 5000 to 8000 nM | – | – | – | – | – | – | – | – | – | – | – |
| CNC(=O)c1ccc(OC)c(NCC#Cc2cn3c(N[C@@H]4CCNC[C@@H]4F)cccc3c2SC(F)(F)F)c1 [Example 381] | < 10 nM | < 750 nM | > 90% | < 750 nM | < 750 nM | 8000 to 10000 nM | – | – | – | – | – | – | – | – | – | – | – |
| COc1cc(C(=O)NC[C@@H](O)CO)ccc1NCC#Cc1cc2c(N[C@@H]3CCN(C)C[C@@H]3F)cccn2c1SC(F)(F)F [Example 421] | < 10 nM | < 750 nM | > 90% | < 750 nM | < 750 nM | ≥ 10000 nM | – | – | – | – | – | – | – | – | – | – | – |
| CNS(=O)(=O)c1ccc(OC)c(NCC#Cc2cc3c(N[C@@H]4CCN(C)C[C@@H]4F)cccn3c2SC(F)(F)F)c1 [Example 132, 3-{[3-(8-{[(3S,4R)-3-fluoro-1-methylpiperidin-4-yl]amino}-3-[(trifluoromethyl)sulfanyl]indolizin-2-yl)prop-2-yn-1-yl]amino}-4-methoxy-N-methylbenzenesulfonamide] | – | – | – | – | – | – | < 10 nM | 80 to 90% | < 750 nM | < 750 nM | < 750 nM | 5000 to 8000 nM | – | – | – | – | – |
| CNC(=O)c1ccc(NCC#Cc2cc3c(N[C@@H]4CCN(C)C[C@@H]4F)cccn3c2SC(F)(F)F)c(O)c1 [Example 469, 4-{[3-(8-{[(3S,4R)-3-fluoro-1-methylpiperidin-4-yl]amino}-3-[(trifluoromethyl)sulfanyl]indolizin-2-yl)prop-2-yn-1-yl]amino}-3-hydroxy-N-methylbenzamide] | < 10 nM | – | – | – | – | – | – | – | – | – | – | – | < 750 nM | > 90% | < 750 nM | < 750 nM | 5000 to 8000 nM |
| CNC(=O)c1cnc(OC)c(NCC#Cc2cc3c(N[C@@H]4CNC[C@@H]4F)nccn3c2SC(F)(F)F)c1 [Example 313] | < 10 nM | 750 to 1500 nM | 80 to 90% | 750 to 1500 nM | 750 to 1500 nM | ≥ 10000 nM | – | – | – | – | – | – | – | – | – | – | – |
| CNC(=O)c1cnc(OC)c(NCC#Cc2cc3c(N[C@@H]4CN(C)C[C@@H]4F)nccn3c2SC(F)F)c1 [Example 328] | < 10 nM | < 750 nM | > 90% | < 750 nM | < 750 nM | ≥ 10000 nM | – | – | – | – | – | – | – | – | – | – | – |
| COc1cc(C(=O)NCCN(C)C)ccc1NCC#Cc1nc2c(N[C@@H]3CCOC[C@@H]3F)cccn2c1SC(F)(F)F [Example 221] | – | – | – | – | – | – | < 10 nM | 70 to 80% | < 750 nM | < 750 nM | < 750 nM | < 5000 nM | – | – | – | – | – |
| CN1CC[C@@H](Nc2cccn3c(SC(F)(F)F)c(C#CCNc4ccc(P(C)(C)=O)cn4)cc23)[C@@H](F)C1 [Example 428, 2-(3-{[5-(dimethylphosphoryl)pyridin-2-yl]amino}prop-1-yn-1-yl)-N-[(3S,4R)-3-fluoro-1-methylpiperidin-4-yl]-3-[(trifluoromethyl)sulfanyl]indolizin-8-amine] | < 10 nM | < 750 nM | 80 to 90% | < 750 nM | < 750 nM | ≥ 10000 nM | – | – | – | – | – | – | – | – | – | – | – |
| CNC(=O)c1ccc(NCC#Cc2cc3c(N[C@@H]4CCN(C)C[C@@H]4F)cccn3c2SC(F)(F)F)c(OC)n1 [Example 433, 5-{[3-(8-{[(3S,4R)-3-fluoro-1-methylpiperidin-4-yl]amino}-3-[(trifluoromethyl)sulfanyl]indolizin-2-yl)prop-2-yn-1-yl]amino}-6-methoxy-N-methylpyridine-2-carboxamide] | < 10 nM | < 750 nM | > 90% | < 750 nM | < 750 nM | 5000 to 8000 nM | – | – | – | – | – | – | – | – | – | – | – |
| CN1CC[C@@H](Nc2cccn3c(SC(F)(F)F)c(C#CCNc4ccc(P(C)(C)=O)c5c4OCC5)cc23)[C@@H](F)C1 [Example 449] | < 10 nM | < 750 nM | > 90% | < 750 nM | < 750 nM | 5000 to 8000 nM | – | – | – | – | – | – | – | – | – | – | – |
